system: Phytophthora infestans; assay: not given; format: in vivo, Phytophthora infestans on tomato; details: hydrazone 50 ppm + 50 μM CuCl2.2H2O, applied 24 h before inoculation, assessed 7 days after inoculation, tomato

Row | SMILES | TLB % Control [%]
1 | O=C(N/N=C/c1cc(Cl)cc(Cl)c1O)c1cc(Br)ccc1Cl [Example 98] | 79.7
2 | COc1cccc(C(=O)N/N=C/c2cc(Br)ccc2O)c1C [Example 105] | 74.6
3 | O=C(N/N=C/c1cc(Cl)cc(Br)c1O)c1ccc(OC(F)(F)F)cc1 [Example 106] | 88.7
4 | Cc1cc(C)cc(C(=O)N/N=C/c2cc(Br)ccc2O)c1 [Example 107] | 74.6
5 | COc1cccc(C(=O)N/N=C/c2cc(Br)cc(Br)c2O)c1C [Example 108] | 50.9
6 | Cc1cc(C)cc(C(=O)N/N=C/c2cc(Br)cc(Br)c2O)c1 [Example 110] | 76.4
7 | O=C(N/N=C/c1cc(Br)cc(Br)c1O)c1ccc2ccccc2c1 [Example 111] | 63.6
8 | O=C(N/N=C/c1cc(Br)cc(Br)c1O)c1cc(Cl)cc(Cl)c1 [Example 117] | 89.5
9 | COc1cccc(C(=O)N/N=C/c2cc(Cl)cc(Br)c2O)c1C [Example 132] | 65.5
10 | COc1cccc(C(=O)N/N=C/c2cc(Cl)ccc2O)c1C [Example 133] | 71.9
11 | Cc1cc(C)cc(C(=O)N/N=C/c2cc(Cl)ccc2O)c1 [Example 134] | 57.0
12 | C/C(=N\NC(=O)c1cccc(Br)c1)c1cc(Cl)cc(Cl)c1O [Example 138] | 91.0
13 | COc1ccccc1C(=O)N/N=C(\C)c1cc(Cl)cc(Cl)c1O [Example 141] | 52.0
14 | C/C(=N\NC(=O)c1ccccc1[N+](=O)[O-])c1cc(Cl)cc(Cl)c1O [Example 142] | 79.0
15 | O=C(N/N=C/c1cc(Cl)cc(Br)c1O)c1ccc(C(F)(F)F)cc1 [Example 164] | 96.5
16 | Cc1cccc(C(=O)N/N=C/c2cc(Cl)cc(Br)c2O)c1O [Example 165] | 88.4
17 | COc1cccc(C(=O)N/N=C/c2cc(Cl)cc(Br)c2O)c1 [Example 166] | 71.9
18 | Cc1cc(C)cc(C(=O)N/N=C/c2ccccc2O)c1 [Example 167] | 67.3
19 | Cc1cc(C)cc(C(=O)N/N=C/c2cc(Cl)cc(Br)c2O)c1 [Example 168] | 59.6
20 | O=C(N/N=C/c1cc(Br)ccc1O)c1ccc(C(F)(F)F)cc1 [Example 184] | 70.9
21 | O=C(N/N=C/c1cc(Br)ccc1O)c1cc(Cl)ccc1Cl [Example 186] | 61.8

system: not given; assay: not given; details: not given

Row | SMILES | melting point [°C]
22 | O=C(N/N=C/c1cc(Cl)cc(Cl)c1O)c1cc(Br)ccc1Cl [Example 98] | 191 to 192
23 | COc1cccc(C(=O)N/N=C/c2cc(Br)ccc2O)c1C [Example 105] | 199 to 201
24 | O=C(N/N=C/c1cc(Cl)cc(Br)c1O)c1ccc(OC(F)(F)F)cc1 [Example 106] | 210 to 220
25 | Cc1cc(C)cc(C(=O)N/N=C/c2cc(Br)ccc2O)c1 [Example 107] | 191 to 195
26 | COc1cccc(C(=O)N/N=C/c2cc(Br)cc(Br)c2O)c1C [Example 108] | 188 to 189
27 | Cc1cc(C)cc(C(=O)N/N=C/c2cc(Br)cc(Br)c2O)c1 [Example 110] | 209 to 211
28 | O=C(N/N=C/c1cc(Br)cc(Br)c1O)c1ccc2ccccc2c1 [Example 111] | 237 to 239
29 | O=C(N/N=C/c1cc(Br)cc(Br)c1O)c1cc(Cl)cc(Cl)c1 [Example 117] | 267 to 269
30 | COc1cccc(C(=O)N/N=C/c2cc(Cl)cc(Br)c2O)c1C [Example 132] | 187 to 189
31 | COc1cccc(C(=O)N/N=C/c2cc(Cl)ccc2O)c1C [Example 133] | 122 to 128
32 | Cc1cc(C)cc(C(=O)N/N=C/c2cc(Cl)ccc2O)c1 [Example 134] | 196 to 199
33 | C/C(=N\NC(=O)c1cccc(Br)c1)c1cc(Cl)cc(Cl)c1O [Example 138] | 247 to 253
34 | COc1ccccc1C(=O)N/N=C(\C)c1cc(Cl)cc(Cl)c1O [Example 141] | 307 to 310
35 | C/C(=N\NC(=O)c1ccccc1[N+](=O)[O-])c1cc(Cl)cc(Cl)c1O [Example 142] | 250 to 253
36 | O=C(N/N=C/c1cc(Cl)cc(Br)c1O)c1ccc(C(F)(F)F)cc1 [Example 164] | 250 to 251
37 | Cc1cccc(C(=O)N/N=C/c2cc(Cl)cc(Br)c2O)c1O [Example 165] | 218 to 221
38 | COc1cccc(C(=O)N/N=C/c2cc(Cl)cc(Br)c2O)c1 [Example 166] | 166 to 168
39 | Cc1cc(C)cc(C(=O)N/N=C/c2ccccc2O)c1 [Example 167] | 203 to 205
40 | Cc1cc(C)cc(C(=O)N/N=C/c2cc(Cl)cc(Br)c2O)c1 [Example 168] | 223 to 226
41 | O=C(N/N=C/c1cc(Br)ccc1O)c1ccc(C(F)(F)F)cc1 [Example 184] | 219 to 222
42 | O=C(N/N=C/c1cc(Br)ccc1O)c1cc(Cl)ccc1Cl [Example 186] | 196 to 202

system: Leptosphaeria nodorum (LEPTNO); assay: In vitro fungitoxicity of hydrazones with and without copper towards Leptosphaeria nodorum (Example 26); format: cell-based; details: Parastagonospora nodorum, 72 h, compound 0.05 μg/mL, copper-minus medium, 72 h at 25° C.; read-out: LEPTNO % Inhn. Minus Copper Observed

Row | SMILES | inhibition of growth at 0.05 µg/mL [%]
43 | O=C(N/N=C/c1cc(Cl)cc(Cl)c1O)c1cc(Br)ccc1Cl [Example 98] | 16.8
44 | COc1cccc(C(=O)N/N=C/c2cc(Br)ccc2O)c1C [Example 105] | 5.8
45 | O=C(N/N=C/c1cc(Cl)cc(Br)c1O)c1ccc(OC(F)(F)F)cc1 [Example 106] | 0
46 | Cc1cc(C)cc(C(=O)N/N=C/c2cc(Br)ccc2O)c1 [Example 107] | 0
47 | COc1cccc(C(=O)N/N=C/c2cc(Br)cc(Br)c2O)c1C [Example 108] | 21.3
48 | Cc1cc(C)cc(C(=O)N/N=C/c2cc(Br)cc(Br)c2O)c1 [Example 110] | 19.9
49 | O=C(N/N=C/c1cc(Br)cc(Br)c1O)c1ccc2ccccc2c1 [Example 111] | 16.8
50 | O=C(N/N=C/c1cc(Br)cc(Br)c1O)c1cc(Cl)cc(Cl)c1 [Example 117] | 28.8
51 | COc1cccc(C(=O)N/N=C/c2cc(Cl)cc(Br)c2O)c1C [Example 132] | 9.1
52 | COc1cccc(C(=O)N/N=C/c2cc(Cl)ccc2O)c1C [Example 133] | 8.8
53 | Cc1cc(C)cc(C(=O)N/N=C/c2cc(Cl)ccc2O)c1 [Example 134] | 4.2
54 | C/C(=N\NC(=O)c1cccc(Br)c1)c1cc(Cl)cc(Cl)c1O [Example 138] | 4
55 | COc1ccccc1C(=O)N/N=C(\C)c1cc(Cl)cc(Cl)c1O [Example 141] | 1.5
56 | C/C(=N\NC(=O)c1ccccc1[N+](=O)[O-])c1cc(Cl)cc(Cl)c1O [Example 142] | 1.1
57 | O=C(N/N=C/c1cc(Cl)cc(Br)c1O)c1ccc(C(F)(F)F)cc1 [Example 164] | 10.8
58 | Cc1cccc(C(=O)N/N=C/c2cc(Cl)cc(Br)c2O)c1O [Example 165] | 14.9
59 | COc1cccc(C(=O)N/N=C/c2cc(Cl)cc(Br)c2O)c1 [Example 166] | 2.6
60 | Cc1cc(C)cc(C(=O)N/N=C/c2ccccc2O)c1 [Example 167] | 0
61 | Cc1cc(C)cc(C(=O)N/N=C/c2cc(Cl)cc(Br)c2O)c1 [Example 168] | 13.3
62 | O=C(N/N=C/c1cc(Br)ccc1O)c1ccc(C(F)(F)F)cc1 [Example 184] | 7.1
63 | O=C(N/N=C/c1cc(Br)ccc1O)c1cc(Cl)ccc1Cl [Example 186] | 0

same assay, conditions: compound 0.05 μg/mL, copper-plus medium (CuCl2.2H2O), 72 h at 25° C.

Row | SMILES | LEPTNO % Inhn. Plus Copper Observed [%]
64 | O=C(N/N=C/c1cc(Cl)cc(Cl)c1O)c1cc(Br)ccc1Cl [Example 98] | 98.1
65 | COc1cccc(C(=O)N/N=C/c2cc(Br)ccc2O)c1C [Example 105] | 95.2
66 | O=C(N/N=C/c1cc(Cl)cc(Br)c1O)c1ccc(OC(F)(F)F)cc1 [Example 106] | 94.6
67 | Cc1cc(C)cc(C(=O)N/N=C/c2cc(Br)ccc2O)c1 [Example 107] | 97.2
68 | COc1cccc(C(=O)N/N=C/c2cc(Br)cc(Br)c2O)c1C [Example 108] | 97.6
69 | Cc1cc(C)cc(C(=O)N/N=C/c2cc(Br)cc(Br)c2O)c1 [Example 110] | 98.2
70 | O=C(N/N=C/c1cc(Br)cc(Br)c1O)c1ccc2ccccc2c1 [Example 111] | 97.4
71 | O=C(N/N=C/c1cc(Br)cc(Br)c1O)c1cc(Cl)cc(Cl)c1 [Example 117] | 98.5
72 | COc1cccc(C(=O)N/N=C/c2cc(Cl)cc(Br)c2O)c1C [Example 132] | 97.7
73 | COc1cccc(C(=O)N/N=C/c2cc(Cl)ccc2O)c1C [Example 133] | 98.5
74 | Cc1cc(C)cc(C(=O)N/N=C/c2cc(Cl)ccc2O)c1 [Example 134] | 95.3
75 | C/C(=N\NC(=O)c1cccc(Br)c1)c1cc(Cl)cc(Cl)c1O [Example 138] | 98.1
76 | COc1ccccc1C(=O)N/N=C(\C)c1cc(Cl)cc(Cl)c1O [Example 141] | 96.2
77 | C/C(=N\NC(=O)c1ccccc1[N+](=O)[O-])c1cc(Cl)cc(Cl)c1O [Example 142] | 98.2
78 | O=C(N/N=C/c1cc(Cl)cc(Br)c1O)c1ccc(C(F)(F)F)cc1 [Example 164] | 98.6
79 | Cc1cccc(C(=O)N/N=C/c2cc(Cl)cc(Br)c2O)c1O [Example 165] | 98.4
80 | COc1cccc(C(=O)N/N=C/c2cc(Cl)cc(Br)c2O)c1 [Example 166] | 97.9
81 | Cc1cc(C)cc(C(=O)N/N=C/c2ccccc2O)c1 [Example 167] | 95.8
82 | Cc1cc(C)cc(C(=O)N/N=C/c2cc(Cl)cc(Br)c2O)c1 [Example 168] | 97.7
83 | O=C(N/N=C/c1cc(Br)ccc1O)c1ccc(C(F)(F)F)cc1 [Example 184] | 97.0
84 | O=C(N/N=C/c1cc(Br)ccc1O)c1cc(Cl)ccc1Cl [Example 186] | 97.6

Reference: US20120010075A1 (priority 2009, published 2012)
